# Reference: US4921887A, “Thiazole compounds and pharmaceutical composition comprising the same” (Fujisawa Pharmaceutical Company, Ltd., priority 1987, dated 1990)
# Test system: anaphylactic asthma in guinea pigs
# Test: Antagonistic action on anaphylactic asthma in guinea pigs
# Assay type: in vivo, guinea pigs (male Hartley-strain)
# Details: Cavia porcellus; oral, 30 minutes prior to egg-white albumin aerosol; survival not less than 2 hours after antigen spraying; read-out: Prophylactic Effect ED50
# Method: Antagonistic action on anaphylactic asthma in guinea pigs
# Male Hartley-strain guinea pigs weighing 305-400 g were used. These animals were sensitized by intravenous injection of 0.5 ml/animal of rabbit antiserum to egg-white albumin (PCA antibody titer 4,000). After 24 hours, the animals were housed individually in 5.3-liter plastic chambers. Using a commercial sprayer, a 5% egg-white albumin solution was sprayed in the form of an aerosol into each chamber at a rate of 0.16 ml/min for 2 minutes. Thirty minutes prior to the spraying of the egg-white albumin solution, the test compound was administered orally in varied concentrations. Each dosed group consisted of 5 animals. The prophylactic effect to anaphylaxis was expressed in terms of the ED50 value determined on the basis of the number of guinea pigs which had survived for not less than 2 hours after antigen spraying for each administration concentration of the test compound.
row,Structure (SMILES),ED50 [mg/kg]
1,"CS(=O)(=O)Nc1nc(CN2CCC(OC(c3ccccc3)c3ccccc3)CC2)cs1 [Compound A, 2-Mesylamino-4-[4-(diphenylmethoxy)piperidinomethyl]thiazole]",0.03

# Test system: SRS-A synthesis or release from peritoneal exudate cells (5-lipoxygenase)
# Test: Anti-SRS-A activity (5-lipoxygenase inhibitory activity)
# Assay type: cell-based, SD rats
# Details: A23187 (1 μg/ml)-stimulated rat peritoneal exudate cells, indomethacin 10 μg/ml; SRS-A by contractility of isolated guinea pig ileum; read-out: Inhibitory Concentration IC50
# Method: Anti-SRS-A activity (5-lipoxygenase inhibitory activity)
# Peritoneal exudate cells were collected from glycogen-injected SD rats and adjusted to 1×10^7 cells/ml with Tyrode's solution. One milliliter of the cell suspension was incubated with indomethacin (10 μg/ml) and each varied concentration of the test compound for 10 minutes and, then, further incubated with Ca^++ -ionophore (A23187, 1 μg/ml) for 10 minutes. The supernatant was collected by centrifugation and the SRS-A (slow-reacting substance of anaphylaxis) activity was determined in terms of contractility of the isolated guinea pig ileum in the presence of mepyramine, atropine and methysergide.
# The results were expressed in terms of the 50% inhibitory concentration to SRS-A synthesis or release from peritoneal exudate cells.
row,Structure (SMILES),IC50 [µg/mL]
1,"C[C@@H](O)C(=O)Nc1nc(CN2CCC(OC(c3ccccc3)c3ccccc3)CC2)cs1 [Compound E, 2-(D-Lactoylamino)-4-[4-(diphenylmethoxy)piperidinomethyl]thiazole]",0.015
2,"O=C(Nc1nc(CN2CCC(OC(c3ccccc3)c3ccccc3)CC2)cs1)C1CC1 [Compound D, 2-Cyclopropylcarbonylamino-4-[4-(diphenylmethoxy)piperidinomethyl]thiazole]",0.011
3,"CNC(=O)Nc1nc(CN2CCC(OC(c3ccccc3)c3ccccc3)CC2)cs1 [Compound G, 2-(3-Methylureido)-4-[4-(diphenylmethoxy)piperidinomethyl]thiazole]",0.015

# The remaining lines, values ahead:
row,IC50 [µg/mL],Structure (SMILES)
1,0.014,"CCOC(=O)Nc1nc(CN2CCC(OC(c3ccccc3)c3ccccc3)CC2)cs1 [Compound F, 2-Ethoxycarbonylamino-4-[4-(diphenylmethoxy)piperidinomethyl]thiazole]"
2,0.023,"CCC(=O)Nc1nc(CN2CCC(OC(c3ccccc3)c3ccccc3)CC2)cs1 [Compound B, 2-Propionylamino-4-[4-(diphenylmethoxy)piperidinomethyl]thiazole]"
3,0.023,"CCCC(=O)Nc1nc(CN2CCC(OC(c3ccccc3)c3ccccc3)CC2)cs1 [Compound C, 2-Butyrylamino-4-[4-(diphenylmethoxy)piperidinomethyl]thiazole]"
